Data reported in US8476197B2, “Aminopropenoates as fungicides” (priority 2009, dated 2013).
Marks after values point to notes of the source that are not given here.

Settings: pH 2.3

SMILES | Log P
CCCCCCC(C)NC(=C(C#N)C(=O)OCC)c1cccnc1Cl (racemic) [Compound 819] | 4.53
CNC(=O)C(C#N)=C(NC(C)C1CC1)c1cccnc1Cl (racemic) [Compound 908] | 2.2^[c]; 2.2^[b]

Same assay, conditions: pH 2.7

SMILES | Log P
CCCCCCC(C)NC(=C(C#N)C(=O)OCC)c1c(C)nn(C)c1F (racemic) [Compound 813] | 4.51^[a]
CCCCCCC(C)NC(=C(C#N)C(=O)OCC)c1cn(C)nc1C(F)F (racemic) [Compound 817] | 4.36^[a]
CCOC(=O)C(C#N)=C(NC(C)CC)c1cnc(Cl)cc1Cl (racemic) [Compound 838] | 3.64^[a]
CCOC(=O)C(C#N)=C(NC(C)CC)c1ncc(Cl)cc1Cl (racemic) [Compound 839] | 3.78^[a]
CCOC(=O)C(C#N)=C(NC(C)CC)c1cccnc1C(F)(F)F (racemic) [Compound 840] | 3.27^[a]
CCOC(=O)C(C#N)=C(NC(C)CC)c1nc(SC)ncc1Br (racemic) [Compound 841] | 3.89^[a]
CCOC(=O)C(C#N)=C(NC(C)CC)c1cccnc1C(F)F (racemic) [Compound 842] | 2.87^[a]
CCCCCC(C)NC(=C(C#N)C(=O)OCC)c1cn(C)nc1C(F)F (racemic) [Compound 855] | 3.94^[a]
CCOC(=O)C(C#N)=C(NC(C)C1CC1)c1cn(C)nc1C(F)(F)F (racemic) [Compound 894] | 3.29^[a]
CCOC(=O)C(C#N)=C(NC(C)C1CC1)c1cn(C)nc1C(C)F (racemic) [Compound 895] | 2.84^[a]
CCOC(=O)C(C#N)=C(NC(C)C1CC1)c1cc(Cl)ncc1Cl (racemic) [Compound 896] | 3.69^[a]
CCOC(=O)C(C#N)=C(NC(C)C1CC1)c1ccncc1Cl (racemic) [Compound 898] | 3.03^[a]
CCOC(=O)C(C#N)=C(NC(C)C1CC1)c1cccnc1C(F)F (racemic) [Compound 899] | 2.9^[a]
CCOC(=O)C(C#N)=C(NC(C)C1CC1)c1cc(Cl)cc(Cl)n1 (racemic) [Compound 900] | 3.92^[a]
CCOC(=O)C(C#N)=C(NC(C)C1CC1)c1ccnc(Cl)c1Cl (racemic) [Compound 902] | 3.61^[a]
CCOC(=O)C(C#N)=C(NC(C)C1CC1)c1ccncc1Br (racemic) [Compound 903] | 3^[a]
CCOC(=O)C(C#N)=C(NC(C)C1CC1)c1ccncc1F (racemic) [Compound 904] | 2.8^[a]
CCOC(=O)C(C#N)=C(NC(C)C1CC1)c1ccncc1C(F)(F)F (racemic) [Compound 905] | 3.2^[a]
CCOC(=O)C(C#N)=C(NC(C)C(C)(C)C)c1ccsc1Br (racemic) [Compound 923] | 4.36^[a]
CCOC(=O)C(C#N)=C(NC(C)C(C)C)c1c(C(F)F)nn(C)c1F (racemic) [Compound 1000] | 3.53^[a]
C=CCCCC(C=C)NC(=C(C#N)C(=O)OCC)c1c(C)nn(C)c1Cl (racemic) [Compound 1013] | 4.04^[a]
C=CCCCC(C=C)NC(=C(C#N)C(=O)OCC)c1ncc(C(F)(F)F)cc1Cl (racemic) [Compound 1015] | 4.82^[a]

SMILES | Log P
C=CCCCC(C=C)NC(=C(C#N)C(=O)OCC)c1cn(C)nc1C(F)F (racemic) [Compound 1016] | 3.73^[a]
C=CCCCC(C=C)NC(=C(C#N)C(=O)OCC)c1ccsc1Br (racemic) [Compound 1018] | 4.67^[a]
CCOC(=O)C(C#N)=C(NC(C)CSc1cc(Cl)ccc1Cl)c1cn(C)nc1C(F)F (racemic) [Compound 1235] | 4.08^[a]
CCOC(=O)C(C#N)=C(NC(C)CSc1ccc(Cl)c(Cl)c1)c1cn(C)nc1C(F)F (racemic) [Compound 1236] | 4.2^[a]
CCOC(=O)C(C#N)=C(NCC(c1ccccc1)C(C)C)c1cn(C)nc1C(F)F (racemic) [Compound 1239] | 3.94^[a]
CCOC(=O)C(C#N)=C(NC(C)C(=O)CC)c1cn(C)nc1C(F)F (racemic) [Compound 1240] | 2.47^[a]
CCOC(=O)C(C#N)=C(NC(C)COCc1ccccc1Cl)c1cn(C)nc1C(F)F (racemic) [Compound 1241] | 3.83^[a]
CCOC(=O)C(C#N)=C(NC(C)COc1ccccc1C)c1cn(C)nc1C(F)F (racemic) [Compound 1242] | 3.78^[a]
CCOC(=O)C(C#N)=C(NC(C)c1ccccn1)c1ccnc(C)c1Cl (racemic) [Compound 1243] | 2.6^[a]
CCOC(=O)C(C#N)=C(NC(C)c1nccs1)c1cn(C)nc1I (racemic) [Compound 1247] | 3.46^[a]
CCOC(=O)C(C#N)=C(NC(C)c1ccccn1)c1cn(C)nc1I (racemic) [Compound 1248] | 2.37^[a]
CCCC(C#N)NC(=C(C#N)C(=O)OCC)c1cn(C)nc1C(F)F (racemic) [Compound 1250] | 2.77^[a]
CCOC(=O)C(C#N)=C(NC(C#N)CC)c1cn(C)nc1C(F)F (racemic) [Compound 1251] | 2.45^[a]
CCOC(=O)C(C#N)=C(NC(C#N)CC(C)C)c1cn(C)nc1C(F)F (racemic) [Compound 1252] | 3.04^[a]
CCOC(=O)C(C#N)=C(NC(C)C(F)(F)F)c1cn(C)nc1C(F)F (racemic) [Compound 1253] | 2.92^[a]
CCOC(=O)C(C#N)=C(NC(C)C#N)c1cn(C)nc1C(F)F (racemic) [Compound 1254] | 2.15^[a]
CCNC(=O)C(C)NC(=C(C#N)C(=O)OCC)c1cn(C)nc1C(F)F (racemic) [Compound 1256] | 1.88^[a]
CCOC(=O)C(C#N)=C(NC(C#N)c1cccc(Cl)c1Cl)c1cccnc1Cl (racemic) [Compound 1257] | 3.69^[a]
C#CCC(C#N)NC(=C(C#N)C(=O)OCC)c1cccnc1Cl (racemic) [Compound 1258] | 2.37^[a]
CCOC(=O)C(C#N)=C(NC(C#N)Cc1ccccc1)c1cccnc1Cl (racemic) [Compound 1259] | 3.02^[a]
CCOC(=O)C(C#N)=C(NC(c1ccc(N(C)C)cc1)C(F)(F)F)c1cccnc1Cl (racemic) [Compound 1260] | 3.99^[a]
CCOC(=O)C(C#N)=C(NC(c1ccc(Cl)cc1)C(F)(F)F)c1cccnc1Cl (racemic) [Compound 1261] | 4.25^[a]

More lines, now with the values ahead:

Log P | SMILES
2.82^[a] | CCOC(=O)C(C#N)=C(NC(C)C(F)(F)F)c1cn(C)nc1OC (racemic) [Compound 808]
3.75^[a] | CCOC(=O)C(C#N)=C(NC(C)C(F)(F)F)c1sc(Cl)nc1Cl (racemic) [Compound 809]
4.11^[a] | CCOC(=O)C(C#N)=C(NC(C)C(F)(F)F)c1cc(Cl)sc1Cl (racemic) [Compound 810]
3.64^[a] | CCOC(=O)C(C#N)=C(NC(C)C(F)(F)F)c1cn(C)cc1C(F)(F)F (racemic) [Compound 812]
5.48^[a] | CCCCCCC(C)NC(=C(C#N)C(=O)OCC)c1sccc1Br (racemic) [Compound 814]
5.48^[a] | CCCCCCC(C)NC(=C(C#N)C(=O)OCC)c1sccc1C(F)(F)F (racemic) [Compound 815]
4.86^[a] | CCCCCCC(C)NC(=C(C#N)C(=O)OC)c1sc(C)nc1C(F)(F)F (racemic) [Compound 816]
5.22^[a] | CCCCCCC(C)NC(=C(C#N)C(=O)OCC)c1sc(C)nc1C(F)(F)F (racemic) [Compound 818]
5.41^[a] | CCCCCCC(C)NC(=C(C#N)C(=O)OCC)c1ccsc1Br (racemic) [Compound 820]
3.67^[a] | CCOC(=O)C(C#N)=C(NC(C)CC)c1nc(Cl)ccc1Cl (racemic) [Compound 837]
3.17^[a] | CCOC(=O)C(C#N)=C(NC(C)CC)c1cnccc1C(F)(F)F (racemic) [Compound 843]
5.03^[a] | CCCCCC(C)NC(=C(C#N)C(=O)OCC)c1sccc1Br (racemic) [Compound 846]
5.05^[a] | CCCCCC(C)NC(=C(C#N)C(=O)OCC)c1sccc1C(F)(F)F (racemic) [Compound 849]
4.41^[a] | CCCCCC(C)NC(=C(C#N)C(=O)OC)c1sc(C)nc1C(F)(F)F (racemic) [Compound 852]
4.81^[a] | CCCCCC(C)NC(=C(C#N)C(=O)OCC)c1sc(C)nc1C(F)(F)F (racemic) [Compound 858]
3.2^[a] | CCOC(=O)C(C#N)=C(NC(C)C1CC1)c1cnccc1C(F)(F)F (racemic) [Compound 897]
3.56^[a] | CCOC(=O)C(C#N)=C(NC(C)C1CC1)c1cn(C)cc1C(F)(F)F (racemic) [Compound 901]
3.37^[a] | CCOC(=O)C(C#N)=C(NC(C)C(C)(C)C)c1cn(C)nc1C(F)F (racemic) [Compound 918]
4.46^[a] | CCOC(=O)C(C#N)=C(NC(C)C(C)(C)C)c1sccc1C(F)(F)F (racemic) [Compound 919]
3.83^[a] | COC(=O)C(C#N)=C(NC(C)C(C)(C)C)c1sc(C)nc1C(F)(F)F (racemic) [Compound 920]
4.41^[a] | CCOC(=O)C(C#N)=C(NC(C)C(C)(C)C)c1sccc1Br (racemic) [Compound 921]
4.21^[a] | CCOC(=O)C(C#N)=C(NC(C)C(C)(C)C)c1sc(C)nc1C(F)(F)F (racemic) [Compound 922]
3.84^[a] | CCOC(=O)C(C#N)=C(NC(C)C(C)C)c1cn(C)cc1C(F)(F)F (racemic) [Compound 987]
4.06^[a] | CCOC(=O)C(C#N)=C(NC(C)C(C)C)c1c(C(F)(F)F)nn(C)c1Cl (racemic) [Compound 1001]
3.39^[a] | CCOC(=O)C(C#N)=C(NC(C)C(C)C)c1cn(C)nc1C(C)(F)F (racemic) [Compound 1002]
4.7^[a] | C=CCCCC(C=C)NC(=C(C#N)C(=O)OCC)c1sccc1C(F)(F)F (racemic) [Compound 1014]
4.67^[a] | C=CCCCC(C=C)NC(=C(C#N)C(=O)OCC)c1sccc1Br (racemic) [Compound 1017]
3.92^[a] | CCOC(=O)C(C#N)=C(NC(C)COc1cccc(C(F)(F)F)c1)c1cn(C)nc1C(F)F (racemic) [Compound 1237]

Same assay, conditions: pH 7.5

SMILES | Log P
CCCCCCC(C)NC(=C(C#N)C(=O)OCC)c1cccnc1Cl (racemic) [Compound 819] | 4.55
CCCCCC(C)NC(=C(C#N)C(=O)OCC)c1cccnc1Cl (racemic) [Compound 859] | 4.1
CNC(=O)C(C#N)=C(NC(C)C1CC1)c1cccnc1Cl (racemic) [Compound 908] | 2.2^[c]; 2.2^[b]
